Experimental data from US8269000B2, “Substituted pyrimidine and triazine compounds” (Gruenenthal GmbH, priority 2008, dated 2012).

What was measured:
[1] = biological target: T1, human B1R (Homo sapiens, UniProt P46663); experiment: FLIPR Ca2+ functional study on bradykinin receptor 1 (hB1R CHO K1 cells); format: cell-based; conditions: % inhibition human B1R at 10 μM, read-out: % inh. (hum. B1R) 10 μM
T1 construct: expressed in transfected cells; host or cells: CHO K1 cells
T1 sequence (P46663 1-353): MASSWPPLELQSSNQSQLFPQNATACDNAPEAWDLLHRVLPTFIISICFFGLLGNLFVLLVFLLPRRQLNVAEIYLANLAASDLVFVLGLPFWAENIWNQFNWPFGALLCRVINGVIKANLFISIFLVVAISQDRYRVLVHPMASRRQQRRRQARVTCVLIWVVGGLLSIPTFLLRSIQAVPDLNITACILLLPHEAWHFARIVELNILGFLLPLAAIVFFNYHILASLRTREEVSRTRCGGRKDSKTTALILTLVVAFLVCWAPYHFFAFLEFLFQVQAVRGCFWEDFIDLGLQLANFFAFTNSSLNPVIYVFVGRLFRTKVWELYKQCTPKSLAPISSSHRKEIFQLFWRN
Procedure: The agonistic or antagonistic activity of substances can be quantified on the bradykinin receptor 1 (B1R) of the species human and rat using ectopically expressing cell lines (CHO K1 cells) and with the aid of a Ca^2+-sensitive dye (Fluo-4) using a fluorescent imaging plate reader (FLIPR). The indication in % activation is based on the Ca^2+ signal after addition of Lys-Des-Arg^9-bradykinin (0.5 nM) or Des-Arg^9-bradykinin (100 nM). Antagonists lead to suppression of the Ca^2+ influx after the addition of the agonist. % Inhibition compared with the maximum achievable inhibition is indicated.
The agonistic or antagonistic activity of substances can be determined on the bradykinin receptor 1 (B1R) of the species human and rat using the following assay. According to this assay, the Ca^2+ influx through the channel is quantified with the aid of a Ca^2+-sensitive dye (Fluo-4 type, Molecular Probes Europe BV, Leiden, Netherlands) using a Fluorescent Imaging Plate Reader (FLIPR, Molecular Devices, Sunnyvale, USA).
Chinese hamster ovary cells (CHO K1 cells) which have been stably transfected with the human B1R gene (hB1R cells) or with the B1R gene of the rat (rB1R cells) are used. For functional studies, the cells are plated out on black 96-well plates having a clear base (BD Biosciences, Heidelberg, Germany or Greiner, Frickenhausen, Germany) in a density of 20,000-35,000 cells/well. The cells are left overnight at 37° C. and with 5% CO2 in culture medium (hB1R cells: Nutrient Mixture Ham's F12, Gibco Invitrogen GmbH, Karlsruhe, Germany or DMEM, Sigma-Aldrich, Taufkirchen, Germany; rB1R cells: D-MEM/F12, Gibco Invitrogen GmbH, Karlsruhe, Germany), with 10 vol.% FBS (fetal bovine serum, Gibco Invitrogen GmbH, Karlsruhe, Germany or PAN Biotech GmbH, Aidenbach, Germany). On the following day, the cells are loaded for 60 minutes at 37° C. with 2.13 μM Fluo-4 (Molecular Probes Europe BV, Leiden, Netherlands) in HBSS buffer (Hank's buffered saline solution, Gibco Invitrogen GmbH, Karlsruhe, Germany) […] (Sigma-Aldrich, Taufkirchen, Germany) and 10 mM HEPES (Sigma-Aldrich, Taufkirchen, Germany). The plates are then washed twice with HBSS buffer, and HBSS buffer additionally containing 0.1% BSA (bovine serum albumin; Sigma-Aldrich, Taufkirchen, Germany), 5.6 mM glucose and 0.05% gelatin (Merck KGaA, Darmstadt, Germany) is added to the plates. After incubation for a further 20 minutes at room temperature, the plates are inserted into the FLIPR for Ca^2+ measurement. Alternatively, washing is carried out with buffer A (15 mM HEPES, 80 mM NaCl, 5 mM KCl, 1.2 mM CaCl2, 0.7 mM MgSO4, 2 g/l glucose, 2.5 mM probenecid) followed by loading with buffer A with added 2.5 μM Fluo-4 and 0.025% Pluronic F127 (Sigma-Aldrich, Taufkirchen, Germany). The cells are then washed twice with buffer A and incubated for 30 minutes at room temperature with buffer A additionally containing 0.05% BSA and 0.05% gelatin and are then inserted into the FLIPR for Ca^2+ measurement. The Ca^2+-dependent fluorescence is measured before and after the addition of substances (λex=488 nm, λem=540 nm). Quantification is carried out by measuring the highest fluorescence intensity (FC, fluorescence counts) over time.
The FLIPR protocol consists of two substance additions. Test substances (10 μM) are first pipetted onto the cells and the Ca^2+ influx is compared with the control (hB1R: Lys-Des-Arg^9-bradykinin>=50 nM; rB1R: Des-Arg^9-bradykinin 10 μM). This gives the activation in %, based on the Ca^2+ signal after addition of Lys-Des-Arg^9-bradykinin (>=50 nM) or Des-Arg^9-bradykinin (10 μM). After 10-20 minutes' incubation, Lys-Des-Arg^9-bradykinin (hB1R) or Des-Arg^9-bradykinin (rB1R) is applied in the concentration of the EC80, and the influx of Ca^2+ is likewise determined. Antagonists lead to suppression of the Ca^2+ influx. The % inhibition compared with the maximum achievable inhibition is calculated. […]

[2] = biological target: T2, rat B1R (Rattus norvegicus, UniProt P97583); experiment: FLIPR Ca2+ functional study on bradykinin receptor 1 (rB1R CHO K1 cells); format: cell-based; conditions: for inhibition at 10 µM: CHO-K1, % inhibition rat B1R at 10 μM, read-out: % inh. (rat B1R) 10 μM; for % inh. (rat B1R) 10 μM: % inhibition rat B1R at 10 μM
T2 construct: expressed in transfected cells; host or cells: CHO K1 cells
T2 sequence (P97583 1-337): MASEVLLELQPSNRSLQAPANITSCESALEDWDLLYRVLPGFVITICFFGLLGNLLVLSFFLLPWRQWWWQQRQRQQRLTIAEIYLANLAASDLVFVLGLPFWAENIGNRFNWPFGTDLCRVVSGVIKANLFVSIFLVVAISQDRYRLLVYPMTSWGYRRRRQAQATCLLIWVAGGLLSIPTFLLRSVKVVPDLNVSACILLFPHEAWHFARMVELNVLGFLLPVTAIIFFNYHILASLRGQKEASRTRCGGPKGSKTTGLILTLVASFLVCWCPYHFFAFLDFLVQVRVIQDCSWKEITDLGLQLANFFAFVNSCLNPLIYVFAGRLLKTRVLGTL
Procedure, shortened: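 Antagonism was calculated as % of maximal inhibition of the Ca2+ rise triggered by agonist at EC80 (Lys-Des-Arg9-bradykinin for hB1R, Des-Arg9-bradykinin for rB1R), added 10-20 min after test compound (10 μM or serial dilutions for IC50) to Fluo-4-loaded transfected CHO K1 cells on FLIPR. Duplicates or triplicates, ≥2 independent runs.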

inhibition at 10 µM [1] | inhibition at 10 µM [2] | % inh. (rat B1R) 10 μM [2] | Structure (SMILES)
99% | 113% | – | COc1cc(C)c(S(=O)(=O)NC(C)(C)COc2nccc(N3CCC4(CCN(c5ccncc5)CC4)CC3)n2)c(C)c1 [Example G-024, N-[1,1-dimethyl-2-[4-(9-pyridin-4-yl-3,9-diazaspiro[5.5]undecan-3-yl)-pyrimidin-2-yl]oxy-ethyl]-4-methoxy-2,6-dimethyl-benzenesulfonic acid amide]
92% | 104% | – | COc1cc(C)c(S(=O)(=O)N(CCCOc2nccc(N3CCC4(CCN(c5ccncc5)CC4)CC3)n2)C2CC2)c(C)c1 [Example G-025, N-cyclopropyl-4-methoxy-2,6-dimethyl-N-[3-[4-(9-pyridin-4-yl-3,9-diazaspiro[5.5]undecan-3-yl)-pyrimidin-2-yl]oxy-propyl]-benzenesulfonic acid amide]
98% | 101% | – | COc1cc(C)c(S(=O)(=O)N2CCCC[C@H]2COc2nccc(N3CCC4(CCN(c5ccncc5)CC4)CC3)n2)c(C)c1 [Example G-026, 3-[2-[[(2S)-1-[(4-methoxy-2,6-dimethyl-phenyl)sulfonyl]-piperidin-2-yl]-methoxy]-pyrimidin-4-yl]-9-pyridin-4-yl-3,9-diazaspiro[5.5]undecane]
44% | 99% | – | COc1cc(C)c(S(=O)(=O)N(C)CCOc2ccnc(N3CCC(CCN4CCCC4)CC3)n2)c(C)c1 [Example H-001, 4-methoxy-N,2,6-trimethyl-N-[2-[[2-[4-(2-1-pyrrolidinylethyl)-1-piperidinyl]-4-pyrimidinyl]oxy]ethyl]benzenesulfonamide]
81% | 51% | – | COc1cc(C)c(S(=O)(=O)N(C)CCOc2ccnc(N3CCN(c4ccncc4)CC3)n2)c(C)c1 [Example H-002]
90% | – | 71% | COc1cc(C)c(S(=O)(=O)N(C)CCOc2ccnc(N(C)CCN3CCC(c4ccccc4)(N(C)C)CC3)n2)c(C)c1 [Example H-003, N-[2-[[2-[2-(4-dimethylamino-4-phenyl-1-piperidinyl)ethyl-methylamino]-4-pyrimidinyl]oxy]ethyl]-4-methoxy-N,2,6-trimethylbenzenesulfonamide]
99% | – | 93% | COc1cc(C)c(S(=O)(=O)N2CCCCC2COc2ccnc(N(C)CCN3CCC(c4ccccc4)(N(C)C)CC3)n2)c(C)c1 (stereo not drawn) [Example H-004]
98% | 97% | – | COc1cc(C)c(S(=O)(=O)N(CCOc2ccnc(N3CCC(Oc4ccncc4)CC3)n2)C2CC2)c(C)c1 [Example H-005, N-cyclopropyl-4-methoxy-2,6-dimethyl-N-[2-[[2-[4-(4-pyridyloxy)-1-piperidinyl]-4-pyrimidinyl]oxy]ethyl]benzenesulfonamide]
64% | 92% | – | Cc1cccc(Cl)c1S(=O)(=O)N(CCOc1ccnc(N2CCC3(CCN(c4ccncc4)CC3)CC2)n1)C1CC1 [Example H-006, 2-chloro-N-cyclopropyl-6-methyl-N-[2-[[2-[9-(4-pyridyl)-3,9-diazaspiro[5.5]undecan-3-yl]-4-pyrimidinyl]oxy]ethyl]benzenesulfonamide]
11% | 80% | – | COc1cc(C)c(S(=O)(=O)N2CC(Oc3ccnc(N4CCC5(CCN(c6ccncc6)CC5)CC4)n3)C2)c(C)c1 [Example H-007, 3-[4-[[1-(4-methoxy-2,6-dimethylphenyl)sulfonyl-3-azetidinyl]oxy]-2-pyrimidinyl]-9-(4-pyridyl)-3,9-diazaspiro[5.5]undecane]
98% | 88% | – | COc1cc(C)c(S(=O)(=O)N(CCOc2cc(N3CCC4(CCN(c5ccncc5)CC4)CC3)ncn2)C2CC2)c(C)c1 [Example I-001, N-cyclopropyl-4-methoxy-2,6-dimethyl-N-[2-[[6-[9-(4-pyridyl)-3,9-diazaspiro[5.5]undecan-3-yl]-4-pyrimidinyl]oxy]ethyl]benzenesulfonamide]
94% | 109% | – | COc1cc(C)c(S(=O)(=O)N(CCN(C)c2cncc(N3CCC4(CCN(c5ccncc5)CC4)CC3)n2)C2CC2)c(C)c1 [Example I-002, N-cyclopropyl-4-methoxy-2,6-dimethyl-N-[2-[methyl-[6-(9-pyridin-4-yl-3,9-diazaspiro[5.5]undecan-3-yl)-pyrazin-2-yl]-amino]-ethyl]-benzenesulfonic acid amide]
96% | 108% | – | COc1cc(C)c(S(=O)(=O)N(CCN(C)c2cc(N3CCC4(CCN(c5ccncc5)CC4)CC3)ncn2)C2CC2)c(C)c1 [Example I-003, N-cyclopropyl-4-methoxy-2,6-dimethyl-N-[2-[methyl-[6-(9-pyridin-4-yl-3,9-diazaspiro[5.5]undecan-3-yl)-pyrimidin-4-yl]-amino]-ethyl]-benzenesulfonic acid amide]
85% | 102% | – | COc1cc(C)c(S(=O)(=O)N(CCN(C)c2ccnc(N3CCC4(CCN(c5ccncc5)CC4)CC3)n2)C2CC2)c(C)c1 [Example I-004, N-cyclopropyl-4-methoxy-2,6-dimethyl-N-[2-[methyl-[2-(9-pyridin-4-yl-3,9-diazaspiro[5.5]undecan-3-yl)-pyrimidin-4-yl]-amino]-ethyl]-benzenesulfonic acid amide]
96% | 111% | – | COc1cc(C)c(S(=O)(=O)N(CCN(C)c2nccc(N3CCC4(CCN(c5ccncc5)CC4)CC3)n2)C2CC2)c(C)c1 [Example I-005, N-cyclopropyl-4-methoxy-2,6-dimethyl-N-[2-[methyl-[4-(9-pyridin-4-yl-3,9-diazaspiro[5.5]undecan-3-yl)-pyrimidin-2-yl]-amino]-ethyl]-benzenesulfonic acid amide]
